The values below are quoted from earlier work in patent US20240277615A1, “SELF-EMULSIFYING COMPOSITION, PRODUCTION METHODS AND USES THEREOF” (Universidade Da Beira Interior, priority 2021, published 2024).

The structures appear in SMILES notation.

Consider `CC(C)CCC[C@@H](C)[C@H]1CC[C@H]2[C@@H]3CC=C4C[C@@H](O)CC[C@]4(C)[C@H]3CC[C@]12C` [cholesterol], for which the Log P – broadly, the decadic logarithm of the partition coefficient of the neutral form, usually between octanol and water – is 7.
With `CCC(C)(C)C(=O)O[C@H]1C[C@@H](C)C=C2C=C[C@H](C)[C@H](CC[C@@H]3C[C@@H](O)CC(=O)O3)[C@H]21` [simvastatin], in the series with plasma protein, the plasma protein binding was 94-98%.
